Drawing on EP0047496A1, “Sulfonyl ureas, processes for their production, pharmaceutical compositions based on these compounds and their use” (HOECHST AKTIENGESELLSCHAFT, priority 1980, dated 1982), this text covers Blutzuckersenkung for three compounds.

The test system of the assay is Kaninchen. Nature of the assay: Blood sugar lowering after oral administration to rabbits (autoanalyzer). The class given is in vivo. The conditions noted are these: 0,4 mg/kg oral, nach 6 Stunden. As to the method: Die blutzuckersenkende Wirkung der erfindungsgemäßen Benzolsulfonylharnstoffe kann dadurch festgestellt werden, daß man sie als freie Verbindungen oder in Form der Natriumsalze an normal ernährte Kaninchen verfüttert und den Blutzuckerwert nach der bekannten Methode von Hagedorn-Jensen oder mit einem Autoanalyzer über eine längere Zeitdauer ermittelt.
Die routinemäßige Bestimmung der blutzuckersenkenden Wirkung kann mit Dosierungen von z.B. 10,2 oder 0,4 mg oder mit noch geringeren Mengen Wirksubstanz pro kg Versuchstier nach bekannten Methoden erfolgen.
Die folgenden Verbindungen I bis V wurden in Dosierungen von 2 mg/kg Kaninchen oral verabreicht und die Blutzuckerwerte wurden mit einem Autoanalyzer über eine Zeitdauer von 24 Stunden ermittelt. Die hierbei gemessene Blutzuckersenkung ist in der nachfolgenden Tabelle in % nach ... Stunden angegeben. • I N-(4-<2-(N'-<5-Chlor-2-methoxy-benzoyl>-ureido)-äthyl>- benzolsulfonyl)-N'-cyclohexyl-harnstoff • II N-(4-<2-(N'-<5-Chlor-2-methoxy-benzoyl>-ureido)-äthyl>- benzolsulfonyl)-N'-butyl-harnsotff • III N-(4-<2-(N'-<5-Chlor-2-methoxy-benzoyl>-ureido)-äthyl>- benzolsulfonyl)-N'-cyclopentyl-harnstoff • IV N-(4-<2-(N'-<2-Methoxy-5-methyl-benzoyl)-ureido)-äthyl>- benzolsulfonyl)-N'-cyclohexyl-harnstoff • V N-(4-<2-(N'-<2-Methoxy-5-methyl-benzoyl>-ureido)-äthyl>- benzolsulfonyl)-N'-(4-methyl-cyclohexyl)-harnstoff [formula]
Die Verbindungen I, IV und V wurden in Dosierungen von 0,4 mg/kg oral an Kaninchen verabreicht und die Blutzuckersenkung gemessen. Sie betrug nach 6 Stunden 40 % (Verbindung I), 41 % (Verbindung IV) und 33 % (Verbindung V).
`COc1ccc(Cl)cc1C(=O)NC(=O)NCCc1ccc(S(=O)(=O)NC(=O)NC2CCCCC2)cc1` [Verbindung I, N-(4-<2-(N'-<5-Chlor-2-methoxy-benzoyl>-ureido)-äthyl>- benzolsulfonyl)-N'-cyclohexyl-harnstoff] displayed a Blutzuckersenkung of 40%.

`COc1ccc(C)cc1C(=O)NC(=O)NCCc1ccc(S(=O)(=O)NC(=O)NC2CCCCC2)cc1` [Verbindung IV] gave a Blutzuckersenkung of 41%.

For `COc1ccc(C)cc1C(=O)NC(=O)NCCc1ccc(S(=O)(=O)NC(=O)NC2CCC(C)CC2)cc1` (stereo not drawn) [Verbindung V, N-(4-<2-(N'-<2-Methoxy-5-methyl-benzoyl>-ureido)-äthyl>- benzolsulfonyl)-N'-(4-methyl-cyclohexyl)-harnstoff], the Blutzuckersenkung was 33%.
